The target of assay [1] is Botulinum neurotoxin type A (Clostridium botulinum (strain Hall / ATCC 3502 / NCTC 13319 / Type A), UniProt P0DPI1). The assay can be described thus: High-throughput multiplex microsphere dose response for inhibitors of toxin protease, specifically Botulinum neurotoxin light chain A protease, compounds from Cherry Pick 01. It counts as functional. The settings on record: read-out: EC50_MICROM.

Assay [2] addresses Protein disulfide-isomerase (Homo sapiens, UniProt P07237). Description: inhibition of PDI-driven insulin aggregation – biochemical, turbidity, absorbance, cherry-picked samples, dose response (AID 602350). It counts as functional.
The target in another assay is Trypsin (Sus scrofa, UniProt P00761). The assay can be described thus: trypsin protease activity blockade – biochemical, quenched peptide fluorescence, cherry-pick, selectivity assay for Rce1 protease inhibitor project, dose response (AID 488789).
The target of assay [3] is T1, CAAX prenyl protease 2 (Saccharomyces cerevisiae S288c, UniProt Q03530).
T1 sequence (Q03530 whole entry): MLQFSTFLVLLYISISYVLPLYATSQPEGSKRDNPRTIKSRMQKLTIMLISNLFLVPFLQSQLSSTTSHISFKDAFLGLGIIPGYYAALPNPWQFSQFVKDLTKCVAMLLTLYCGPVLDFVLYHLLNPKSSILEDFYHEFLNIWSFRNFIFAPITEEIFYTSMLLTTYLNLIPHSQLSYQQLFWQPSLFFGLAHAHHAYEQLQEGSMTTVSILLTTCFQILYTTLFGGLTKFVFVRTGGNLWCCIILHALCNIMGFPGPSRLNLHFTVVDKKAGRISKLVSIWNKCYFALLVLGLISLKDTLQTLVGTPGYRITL
Format: biochemical.

Assay [4] deals with T2, CAAX prenyl protease 2 (Homo sapiens, UniProt Q9Y256).
T2 sequence (Q9Y256 whole entry): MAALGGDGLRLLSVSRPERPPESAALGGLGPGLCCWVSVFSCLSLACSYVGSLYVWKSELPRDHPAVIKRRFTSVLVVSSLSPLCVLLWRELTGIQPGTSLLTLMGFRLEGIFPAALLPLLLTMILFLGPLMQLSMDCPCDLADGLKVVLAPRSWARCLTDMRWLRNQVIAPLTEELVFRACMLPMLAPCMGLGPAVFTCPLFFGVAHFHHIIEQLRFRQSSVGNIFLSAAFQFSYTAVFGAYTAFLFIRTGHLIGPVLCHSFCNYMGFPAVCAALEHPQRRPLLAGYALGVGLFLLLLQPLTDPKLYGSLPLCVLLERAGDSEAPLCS
The assay can be described thus: inhibition of Ras-converting CAAX endoprotease – biochemical, plate reader, dry powder samples, dose response (AID 588848).

Assay [5] deals with T1, CAAX prenyl protease 2. Description: inhibition of Rce1p peptide cleavage – biochemical, plate reader, dry powder retest, dose response (AID 588851).
The target in another assay is T3, Cytochrome P450 1A2 (Homo sapiens, UniProt P05177).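 Note: PubChem cytochrome P450 panel assay, CYP1A2 panel member.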
T3 sequence (P05177 whole entry): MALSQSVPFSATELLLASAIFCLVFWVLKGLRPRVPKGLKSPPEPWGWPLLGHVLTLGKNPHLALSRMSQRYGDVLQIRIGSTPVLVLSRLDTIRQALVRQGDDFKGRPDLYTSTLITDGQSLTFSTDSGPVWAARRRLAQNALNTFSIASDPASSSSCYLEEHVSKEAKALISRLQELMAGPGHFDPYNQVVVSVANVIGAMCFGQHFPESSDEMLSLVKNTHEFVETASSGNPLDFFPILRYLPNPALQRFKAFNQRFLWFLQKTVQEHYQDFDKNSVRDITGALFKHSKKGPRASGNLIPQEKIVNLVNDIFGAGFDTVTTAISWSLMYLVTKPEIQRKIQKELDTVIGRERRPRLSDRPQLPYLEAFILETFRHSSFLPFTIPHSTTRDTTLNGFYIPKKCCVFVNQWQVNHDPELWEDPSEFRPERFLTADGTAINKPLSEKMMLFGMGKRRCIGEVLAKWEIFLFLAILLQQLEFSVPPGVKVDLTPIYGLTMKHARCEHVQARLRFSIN

Assay [6] has as its target T4, Heat shock factor protein 1 (Mus musculus, UniProt P38532).
T4 sequence (P38532 whole entry): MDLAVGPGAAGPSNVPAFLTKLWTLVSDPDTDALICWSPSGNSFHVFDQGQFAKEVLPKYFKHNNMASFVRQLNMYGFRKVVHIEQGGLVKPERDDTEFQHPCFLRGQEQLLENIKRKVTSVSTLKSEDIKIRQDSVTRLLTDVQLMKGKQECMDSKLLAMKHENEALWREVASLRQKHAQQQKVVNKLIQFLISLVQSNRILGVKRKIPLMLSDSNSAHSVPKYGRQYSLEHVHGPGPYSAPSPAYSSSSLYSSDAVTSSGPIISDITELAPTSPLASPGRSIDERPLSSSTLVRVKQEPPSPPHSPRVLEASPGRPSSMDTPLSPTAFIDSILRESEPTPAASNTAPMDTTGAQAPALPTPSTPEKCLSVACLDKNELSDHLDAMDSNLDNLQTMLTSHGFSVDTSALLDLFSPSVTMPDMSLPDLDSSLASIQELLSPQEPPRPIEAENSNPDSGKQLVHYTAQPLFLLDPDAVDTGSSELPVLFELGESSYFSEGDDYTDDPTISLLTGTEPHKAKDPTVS
The assay can be described thus: decrease of HSF1-responsive luciferase luminescence – cell-based, NIH3T3, dose retest, confirmation (AID 2382).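 Note: NIH3T3 fibroblasts with HSF1-driven luciferase reporter stressed by proteasome inhibitor MG132; luminescence from HSF1-driven luciferase expression after 8 hours of MG132 stress.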 Format: functional.

A short description of assay [7]: HPDE-C7 pancreatic duct cell viability loss – fluorescence, HTS (AID 430). Format: functional, cell-based. The settings on record: Homo sapiens.
Assay [8] is described as follows: Trypanosoma cruzi growth suppression in host cells – NIH3T3 host cells, beta-gal luminescence, confirmation (AID 2044).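 Note: intracellular parasites grown in NIH/3T3 mouse fibroblasts as host cells; luminescent beta-galactosidase reporter signal from transgenic T. cruzi replicating inside host cells; inhibitors lower the luminescence signal.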 It counts as functional, cell-based.
The nature of assay [9]: microbe, parasite or virus in culture. It counts as functional. Particulars: Mycobacterium tuberculosis.
Assay [10] can be described thus: viability loss of HPDE-C7K cells – cell-based, fluorescence, HTS, primary screen (AID 431). Particulars: Homo sapiens. It counts as functional.
Assay [11] in a line: NIH3T3 cell viability loss – ATP luminescence, mouse fibroblasts, counter-screen, dose response (AID 2010).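 Note: cells exposed to compound for about 90 hours before reading.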 It counts as functional, cell-based. (Counterscreens check selectivity or assay interference.)
Assay [12] addresses Sphingosine 1-phosphate receptor 4 (Homo sapiens, UniProt O95977). Description: Fluorescence dose response cell-based high throughput screening assay for antagonists of the Sphingosine 1-Phosphate Receptor 4 (S1P4). [Related pubchem assays: 1524 (Confirmation in triplicates.), 1510 (Primary screen.)]. It counts as functional.
For assay [13], the target named is Sphingosine 1-phosphate receptor 1 (Homo sapiens, UniProt P21453). Format: functional.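 Note: Tango beta-arrestin reporter U2OS cells stimulated with S1P near its EC80; inhibitor potency meaning antagonism of receptor activation by the natural agonist.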
The target of assay [14] is DNA damage-inducible transcript 3 protein (Mus musculus, UniProt P35639). It counts as functional, Cricetulus griseus.
The next assay has as its system CHO. The assay can be described thus: CHO cell viability loss, potency – luminescence, cytotoxicity control for TLR9-MyD88 binding inhibitor project, dose response (AID 588339).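 Note: CHO cells stably coexpressing TLR9 and MyD88 fusions from primary screen; compound exposure lasted 48 hours before viability readout.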 It counts as functional, cell-based, hamster. The settings on record: Cricetulus griseus.
For assay [15], the target named is T5, Replicative DNA helicase DnaB (Mycobacterium tuberculosis, UniProt P9WMR3).
T5 sequence (P9WMR3 whole entry): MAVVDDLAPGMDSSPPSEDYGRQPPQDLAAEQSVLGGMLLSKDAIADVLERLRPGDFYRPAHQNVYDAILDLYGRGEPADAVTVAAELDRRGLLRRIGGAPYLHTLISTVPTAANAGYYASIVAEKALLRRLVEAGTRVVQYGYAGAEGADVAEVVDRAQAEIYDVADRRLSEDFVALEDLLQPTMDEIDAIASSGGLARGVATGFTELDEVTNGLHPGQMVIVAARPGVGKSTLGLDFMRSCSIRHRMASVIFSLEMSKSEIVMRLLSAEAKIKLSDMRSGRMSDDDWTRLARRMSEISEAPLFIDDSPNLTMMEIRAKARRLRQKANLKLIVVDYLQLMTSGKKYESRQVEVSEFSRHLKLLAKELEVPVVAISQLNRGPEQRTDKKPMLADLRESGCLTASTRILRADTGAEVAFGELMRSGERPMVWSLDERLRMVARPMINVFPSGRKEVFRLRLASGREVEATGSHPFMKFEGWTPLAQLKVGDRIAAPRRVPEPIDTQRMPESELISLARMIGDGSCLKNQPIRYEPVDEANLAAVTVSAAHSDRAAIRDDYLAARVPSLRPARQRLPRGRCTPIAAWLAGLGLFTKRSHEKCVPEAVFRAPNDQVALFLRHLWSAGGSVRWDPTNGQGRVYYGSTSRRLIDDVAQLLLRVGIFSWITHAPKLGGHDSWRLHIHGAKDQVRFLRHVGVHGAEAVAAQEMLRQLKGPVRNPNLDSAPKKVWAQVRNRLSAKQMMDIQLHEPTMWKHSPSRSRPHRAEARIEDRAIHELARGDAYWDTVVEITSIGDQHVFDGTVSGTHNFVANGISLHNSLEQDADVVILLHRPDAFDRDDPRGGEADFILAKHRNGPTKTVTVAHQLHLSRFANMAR
The assay can be described thus: DnaB intein splicing inhibitors, dose response, biochemical, cell-free fluorescence (AID 449749). Format: functional.

The target of a further assay is T6, Protein RecA (Mycobacterium tuberculosis, UniProt P9WHJ3).
T6 sequence (P9WHJ3 whole entry): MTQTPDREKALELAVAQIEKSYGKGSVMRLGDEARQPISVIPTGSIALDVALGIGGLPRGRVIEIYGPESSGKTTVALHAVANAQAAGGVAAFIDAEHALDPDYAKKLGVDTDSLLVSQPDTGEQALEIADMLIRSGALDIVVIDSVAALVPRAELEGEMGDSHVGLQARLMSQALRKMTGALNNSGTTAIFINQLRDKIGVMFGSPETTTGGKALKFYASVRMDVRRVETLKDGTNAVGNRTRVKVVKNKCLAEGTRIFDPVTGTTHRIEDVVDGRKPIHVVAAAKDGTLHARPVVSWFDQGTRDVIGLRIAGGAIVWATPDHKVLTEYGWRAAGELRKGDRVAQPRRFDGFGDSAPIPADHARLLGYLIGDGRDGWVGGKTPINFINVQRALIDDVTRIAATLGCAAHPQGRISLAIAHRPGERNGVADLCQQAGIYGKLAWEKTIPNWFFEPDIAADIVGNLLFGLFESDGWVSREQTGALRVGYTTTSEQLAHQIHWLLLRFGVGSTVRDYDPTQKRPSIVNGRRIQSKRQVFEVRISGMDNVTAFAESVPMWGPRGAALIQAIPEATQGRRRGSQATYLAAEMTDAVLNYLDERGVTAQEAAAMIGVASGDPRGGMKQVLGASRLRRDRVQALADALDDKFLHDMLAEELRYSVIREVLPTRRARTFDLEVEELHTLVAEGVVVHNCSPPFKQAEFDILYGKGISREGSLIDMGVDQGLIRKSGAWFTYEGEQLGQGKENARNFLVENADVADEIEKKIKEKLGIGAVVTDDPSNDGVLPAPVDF
The assay can be described thus: Fluorescence Cell-Free Homogeneous Dose Retest to Identify Inhibitors of RecA-Intein Splicing Activity. [Related pubchem assays (depositor defined):AID2097, AID2223, AID489010, AID492950]. Format: functional.

A further assay has as its target Beta Lactamase (Pseudomonas aeruginosa, UniProt Q932Y6). Description: BLA reporter interference, concentration series – BLA reporter cells, FRET fluorescence, artefact control for TLR9-MyD88 binding inhibitor project, dose response (AID 588341).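 Note: cell based assay in CHO-K1 cells stably expressing beta-lactamase.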 Format: cell-based.
Assay [16] in a line: reduction of Shn3 3'UTR-driven luciferase in osteoblasts – cell-based, Clone20 osteoblasts, firefly luciferase, cherry-picked, dose response (AID 624132).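 Note: firefly luciferase luminescence from reporter carrying the Shn3 3'UTR in osteoblasts.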 Format: functional.
Assay [17] in a line: loss of viability in HepG2 cells – cell-based, CellTiter-Glo, cherry-picked, cytotoxicity control for Shn3 inhibitor project, dose response (AID 624134). It counts as functional. (In general: Cellular ATP, detected with luciferase, serves as a proxy for viable cell number.)
A short description of assay [18]: non-specific 3'UTR reporter inhibition in Clone20-Shn3RL – cell-based, Renilla luciferase, cherry-picked, counter-screen for Shn3 inhibitor project, dose response (AID 624133). Format: functional.
Assay [19] concerns the target DNA dC->dU-editing enzyme APOBEC-3G (Homo sapiens, UniProt Q9HC16). The assay can be described thus: inhibition of APOBEC3G ssDNA deamination – biochemical, fluorescence, single-stranded DNA substrate, SAR follow-up (AID 602136). Format: functional. Particulars: read-out: IC50_Mean.
The target in assay [20] is DNA dC->dU-editing enzyme APOBEC-3A (Homo sapiens, UniProt P31941). Description: SAR analysis of small molecule inhibitors of APOBEC3A DNA Deaminase via a fluorescence-based single-stranded DNA deaminase assay. Format: functional. Particulars: read-out: IC50_Mean.

The source made the active and inactive calls.

Sequence of DNA dC->dU-editing enzyme APOBEC-3G (Q9HC16 whole entry): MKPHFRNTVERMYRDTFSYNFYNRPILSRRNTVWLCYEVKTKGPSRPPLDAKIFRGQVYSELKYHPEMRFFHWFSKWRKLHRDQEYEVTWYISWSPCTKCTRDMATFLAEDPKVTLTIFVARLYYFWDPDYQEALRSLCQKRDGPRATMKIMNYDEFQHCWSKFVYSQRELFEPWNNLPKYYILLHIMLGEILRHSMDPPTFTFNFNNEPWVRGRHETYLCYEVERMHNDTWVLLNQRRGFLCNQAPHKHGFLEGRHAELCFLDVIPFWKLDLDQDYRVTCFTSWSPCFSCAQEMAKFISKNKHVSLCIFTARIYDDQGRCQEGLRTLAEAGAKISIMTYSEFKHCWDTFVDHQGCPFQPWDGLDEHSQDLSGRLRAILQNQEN
Sequence of DNA damage-inducible transcript 3 protein (P35639 whole entry, the tested form may be a part): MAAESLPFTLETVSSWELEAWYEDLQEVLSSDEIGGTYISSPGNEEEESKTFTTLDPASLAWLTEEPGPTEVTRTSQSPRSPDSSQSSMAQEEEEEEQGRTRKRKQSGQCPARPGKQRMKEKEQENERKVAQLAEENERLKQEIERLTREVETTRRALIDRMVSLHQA
Sequence of Trypsin (P00761 whole entry): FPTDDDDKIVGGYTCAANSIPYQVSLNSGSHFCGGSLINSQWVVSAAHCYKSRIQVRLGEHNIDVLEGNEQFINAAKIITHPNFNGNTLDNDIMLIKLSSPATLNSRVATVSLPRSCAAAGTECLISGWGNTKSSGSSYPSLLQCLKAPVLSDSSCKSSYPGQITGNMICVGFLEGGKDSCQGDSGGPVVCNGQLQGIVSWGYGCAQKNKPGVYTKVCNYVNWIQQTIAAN
Sequence of Protein disulfide-isomerase (P07237 whole entry): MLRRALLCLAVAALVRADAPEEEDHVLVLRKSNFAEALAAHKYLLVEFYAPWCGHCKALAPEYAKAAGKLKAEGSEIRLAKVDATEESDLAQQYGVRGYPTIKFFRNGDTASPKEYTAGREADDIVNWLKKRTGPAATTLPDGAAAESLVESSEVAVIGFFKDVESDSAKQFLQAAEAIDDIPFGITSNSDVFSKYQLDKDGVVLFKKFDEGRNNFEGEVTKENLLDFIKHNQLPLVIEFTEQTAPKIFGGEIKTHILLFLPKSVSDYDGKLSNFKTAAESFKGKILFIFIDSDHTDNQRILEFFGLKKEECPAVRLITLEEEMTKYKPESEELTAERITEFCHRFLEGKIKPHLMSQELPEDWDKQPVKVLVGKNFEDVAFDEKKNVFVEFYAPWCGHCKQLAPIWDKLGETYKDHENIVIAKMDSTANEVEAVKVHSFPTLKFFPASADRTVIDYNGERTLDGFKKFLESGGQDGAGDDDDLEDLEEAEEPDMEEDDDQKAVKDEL
Sequence of Sphingosine 1-phosphate receptor 4 (O95977 whole entry): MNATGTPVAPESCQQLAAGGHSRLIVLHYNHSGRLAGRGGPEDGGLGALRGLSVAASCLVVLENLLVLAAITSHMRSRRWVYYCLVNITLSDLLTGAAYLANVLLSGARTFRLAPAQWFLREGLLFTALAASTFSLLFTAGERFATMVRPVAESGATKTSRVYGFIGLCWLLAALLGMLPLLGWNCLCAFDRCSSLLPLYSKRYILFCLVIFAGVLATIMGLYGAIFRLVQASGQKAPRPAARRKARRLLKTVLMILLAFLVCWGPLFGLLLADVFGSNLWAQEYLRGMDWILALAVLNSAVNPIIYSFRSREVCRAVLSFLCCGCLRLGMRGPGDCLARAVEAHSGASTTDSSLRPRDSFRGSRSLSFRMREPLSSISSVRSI
Sequence of DNA dC->dU-editing enzyme APOBEC-3A (P31941 whole entry): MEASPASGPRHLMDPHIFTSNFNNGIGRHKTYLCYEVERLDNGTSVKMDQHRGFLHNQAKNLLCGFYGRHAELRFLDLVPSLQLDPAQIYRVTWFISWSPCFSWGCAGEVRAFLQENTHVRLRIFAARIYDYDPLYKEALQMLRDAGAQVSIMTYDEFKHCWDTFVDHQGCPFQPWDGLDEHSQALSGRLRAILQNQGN
Sequence of Sphingosine 1-phosphate receptor 1 (P21453 whole entry): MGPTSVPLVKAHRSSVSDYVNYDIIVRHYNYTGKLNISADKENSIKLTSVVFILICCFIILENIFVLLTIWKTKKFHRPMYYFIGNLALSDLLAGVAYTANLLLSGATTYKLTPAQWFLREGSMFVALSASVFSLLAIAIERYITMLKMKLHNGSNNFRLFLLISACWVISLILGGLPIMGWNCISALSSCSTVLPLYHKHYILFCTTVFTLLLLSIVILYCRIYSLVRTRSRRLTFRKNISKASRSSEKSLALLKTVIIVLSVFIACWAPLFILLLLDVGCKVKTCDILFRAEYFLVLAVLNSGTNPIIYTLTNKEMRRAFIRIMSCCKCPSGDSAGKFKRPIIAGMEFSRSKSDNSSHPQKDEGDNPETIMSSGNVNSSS
Sequence of Botulinum neurotoxin type A (P0DPI1 2-448 limits assumed): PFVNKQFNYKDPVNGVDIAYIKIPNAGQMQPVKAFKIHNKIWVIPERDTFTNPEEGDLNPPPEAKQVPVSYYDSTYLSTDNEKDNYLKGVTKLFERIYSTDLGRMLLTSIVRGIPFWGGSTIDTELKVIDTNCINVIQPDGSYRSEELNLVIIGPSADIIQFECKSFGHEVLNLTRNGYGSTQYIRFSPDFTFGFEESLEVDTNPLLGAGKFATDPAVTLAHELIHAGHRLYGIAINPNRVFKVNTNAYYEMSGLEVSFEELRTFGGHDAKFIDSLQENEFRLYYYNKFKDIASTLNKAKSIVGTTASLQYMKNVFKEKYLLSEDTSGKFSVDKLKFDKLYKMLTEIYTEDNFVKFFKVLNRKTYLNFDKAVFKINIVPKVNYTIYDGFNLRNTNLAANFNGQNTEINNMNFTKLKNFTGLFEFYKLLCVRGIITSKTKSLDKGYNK
Sequence of Beta Lactamase (Q932Y6 whole entry): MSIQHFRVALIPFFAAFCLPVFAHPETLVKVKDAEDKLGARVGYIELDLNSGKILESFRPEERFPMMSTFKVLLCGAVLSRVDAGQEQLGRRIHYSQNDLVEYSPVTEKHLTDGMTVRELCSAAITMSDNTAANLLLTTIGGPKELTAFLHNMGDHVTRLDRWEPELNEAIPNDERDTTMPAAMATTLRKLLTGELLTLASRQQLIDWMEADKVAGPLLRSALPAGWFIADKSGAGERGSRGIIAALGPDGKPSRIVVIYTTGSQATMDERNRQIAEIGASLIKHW

`COc1ccc(OC)c(-c2nc3cc4ccccc4cc3nc2-c2ccccc2)c1`: the EC50 in assay [1] is 17.9 µM (active).
Turning to `COc1ccc(C(=O)Nc2ccccc2C(=O)NCc2ccco2)cc1`, the AC50 in assay [2] is 0.819 µM (active).
For the compound `CCOc1cc(S(=O)(=O)N(Cc2ccccc2)Cc2ccccc2)c(OCC)cc1-n1cnnn1`, the AC50 was 34 µM (active) at Trypsin; 1.45 µM (active) on CAAX prenyl protease 2 [3]; 35.6 µM (active) at CAAX prenyl protease 2 [4]; 16.8 µM (active) at CAAX prenyl protease 2 [5]; 15.8 µM (inconclusive) on Cytochrome P450 1A2.
In the case of `CS(=O)(=O)c1nc(-c2ccccc2)cc(C(F)(F)F)n1`, the EC50 in assay [6] was 8.84 µM (inconclusive); in assay [7], 4.36 µM (active); in assay [8] it was 2.21 µM (active); in [10], 4.8 µM (active); in assay [11] it was 2.55 µM (active); at Protein RecA, 5.53 µM (active). Besides, the CC50 in [9] was 30.7 µM (active). Besides, the IC50 was 1.09 µM (active) in assay [12], 16.7 µM (not active) in assay [13], 3.23 µM (active) with CHO and 29.1 µM (inactive) on Beta Lactamase. In [14], the “Absolute IC50 (CHOP)” value is 10 µM. Besides, the concentration at half-maximal activity (AC50) in assay [15] was 4.91 µM (active); in assay [16], 1.53 µM (active); in [17] it was 16 µM (active); in [18], 7.07 µM (active).
Take `Cc1cc(C(=O)N2CCCC(NS(C)(=O)=O)C2)c(C)n1Cc1ccccc1` (stereo not given): the IC50 in assay [19] and in [20] was > 99 µM (inactive) each time.

In general, AC50 refers to the concentration giving half of the maximal activity seen.

Source of the values: ChEMBL document CHEMBL1201862, “PubChem BioAssay data set” (2004).
